Results from patent US20230278972A1, “SUBSTITUTED HALOALKYL SULFONANILIDE HERBICIDES” (FMC Corporation, priority 2020, published 2023).

Tests used:
Assay type in all cases: in vivo
[1] = test system: corn (Zea mays); assay: Test A postemergence, corn; settings: Postemergence, 0 to 100 scale (0 no effect, 100 complete control); for Corn plant response rating: 500 g ai/ha, visual injury vs untreated controls after approx. 10 days
Procedure, shortened: (§1)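 Test chemicals, formulated in a non-phytotoxic solvent mixture with surfactant, were sprayed postemergence on plants 2 to 10 cm tall at the one- to two-leaf stage. Preemergence treatment was a directed soil spray onto freshly seeded pots. Both used a loam soil and sand blend.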

[2] = test system: pigweed (Amaranthus retroflexus); assay: Test A preemergence, pigweed; settings: for Plant response rating, Pigweed: 0 to 100 scale (0 no effect, 100 complete control); for Pigweed plant response rating: 125 g ai/ha, visual injury on 0 to 100 scale (0 no effect, 100 complete control), approximately 10 days
Procedure, shortened: (§2)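 Postemergence ratings come from foliar sprays onto one- to two-leaf plants of 2 to 10 cm grown in loam/sand; preemergence ratings come from a directed spray onto the soil of newly seeded pots. Formulation was a surfactant-containing non-phytotoxic solvent blend.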

[3] = test system: pigweed (Amaranthus retroflexus); assay: Test A postemergence, pigweed; settings: Postemergence, 0 to 100 scale (0 no effect, 100 complete control); for Pigweed plant response rating: 500 g ai/ha, visual injury vs untreated controls after approx. 10 days
Procedure, shortened: as §1

[4] = test system: wheat (Triticum aestivum); assay: Test A postemergence, wheat; settings: Postemergence, 0 to 100 scale (0 no effect, 100 complete control); for Wheat plant response rating: 500 g ai/ha, visual injury vs untreated controls after approx. 10 days
Procedure, shortened: as §2

[5] = test system: Foxtail, Giant (giant foxtail, Setaria faberi); assay: Test A postemergence, Foxtail, Giant; settings: Postemergence, 0 to 100 scale (0 no effect, 100 complete control); for Foxtail, Giant plant response rating: 500 g ai/ha, visual injury vs untreated controls after approx. 10 days
Procedure, shortened: as §1

[6] = test system: kochia (Bassia scoparia); assay: Test A preemergence, kochia; settings: Preemergence; for Plant response rating, Kochia: 0 to 100 scale (0 no effect, 100 complete control); for Kochia plant response rating: 125 g ai/ha, visual injury on 0 to 100 scale (0 no effect, 100 complete control), approximately 10 days
Procedure, shortened: as §1

[7] = test system: barnyardgrass (Echinochloa crus-galli); assay: Test A preemergence, barnyardgrass; settings: Preemergence; for Plant response rating, Barnyardgrass: 0 to 100 scale (0 no effect, 100 complete control); for Barnyardgrass plant response rating: 125 g ai/ha, visual injury on 0 to 100 scale (0 no effect, 100 complete control), approximately 10 days
Procedure, shortened: as §1

[8] = test system: Foxtail, Giant (giant foxtail, Setaria faberi); assay: Test A preemergence, Foxtail, Giant; settings: Preemergence; for Plant response rating, Foxtail, Giant: 0 to 100 scale (0 no effect, 100 complete control); for Foxtail, Giant plant response rating: 125 g ai/ha, visual injury on 0 to 100 scale (0 no effect, 100 complete control), approximately 10 days
Procedure, shortened: as §1

[9] = test system: Ryegrass, Italian (Italian ryegrass, Lolium multiflorum); assay: Test A preemergence, Ryegrass, Italian; settings: Preemergence; for Plant response rating, Ryegrass, Italian: 0 to 100 scale (0 no effect, 100 complete control); for Ryegrass, Italian plant response rating: 125 g ai/ha, visual injury on 0 to 100 scale (0 no effect, 100 complete control), approximately 10 days
Procedure, shortened: as §1

[10] = test system: barnyardgrass (Echinochloa crus-galli); assay: Test A postemergence, barnyardgrass; settings: Postemergence, 0 to 100 scale (0 no effect, 100 complete control); for Barnyardgrass plant response rating: 500 g ai/ha, visual injury vs untreated controls after approx. 10 days
Procedure, shortened: as §2

[11] = test system: galium (catchweed bedstraw, Galium aparine); assay: Test A postemergence, galium; settings: Postemergence, 0 to 100 scale (0 no effect, 100 complete control); for Galium plant response rating: 500 g ai/ha, visual injury vs untreated controls after approx. 10 days
Procedure, shortened: as §2

[12] = test system: blackgrass (Alopecurus myosuroides); assay: Test A postemergence, blackgrass; settings: Postemergence, 0 to 100 scale (0 no effect, 100 complete control); for Blackgrass plant response rating: 500 g ai/ha, visual injury vs untreated controls after approx. 10 days
Procedure, shortened: as §1

[13] = test system: kochia (Bassia scoparia); assay: Test A postemergence, kochia; settings: Postemergence, 0 to 100 scale (0 no effect, 100 complete control); for Kochia plant response rating: 500 g ai/ha, visual injury vs untreated controls after approx. 10 days
Procedure, shortened: as §1

[14] = test system: Ryegrass, Italian (Italian ryegrass, Lolium multiflorum); assay: Test A postemergence, Ryegrass, Italian; settings: Postemergence, 0 to 100 scale (0 no effect, 100 complete control); for Ryegrass, Italian plant response rating: 500 g ai/ha, visual injury vs untreated controls after approx. 10 days
Procedure, shortened: as §1

[15] = test system: ragweed (common ragweed, Ambrosia artemisiifolia); assay: Test A preemergence, ragweed; settings: Preemergence; for Plant response rating, Ragweed: 0 to 100 scale (0 no effect, 100 complete control); for Ragweed plant response rating: 125 g ai/ha, visual injury on 0 to 100 scale (0 no effect, 100 complete control), approximately 10 days
Procedure, shortened: as §1

[16] = test system: ragweed (common ragweed, Ambrosia artemisiifolia); assay: Test A postemergence, ragweed; settings: Postemergence, 0 to 100 scale (0 no effect, 100 complete control); for Ragweed plant response rating: 500 g ai/ha, visual injury vs untreated controls after approx. 10 days
Procedure, shortened: as §1

[17] = 125 g ai/ha, visual injury approx. 10 days
[18] = 31 g ai/ha, visual injury, approx. 10 days

SMILES	Plant response rating, Corn [1, 17]	Pigweed plant response rating [2]	Plant response rating, Pigweed [3, 17]	Plant response rating, Wheat [4, 17]	Plant response rating, Foxtail, Giant [5, 17]	Kochia plant response rating [6]	Barnyardgrass plant response rating [7]	Foxtail, Giant plant response rating [8]	Ryegrass, Italian plant response rating [9]	Plant response rating, Barnyardgrass [10, 17]	Plant response rating, Galium [11, 17]	Plant response rating, Blackgrass [12, 17]	Plant response rating, Kochia [13, 17]	Plant response rating, Ryegrass, Italian [14, 17]	Ragweed plant response rating [15]	Plant response rating, Ragweed [16, 17]	Corn plant response rating [1]	Plant response rating, Pigweed ([2]; 500 g ai/ha)	Pigweed plant response rating [3]	Wheat plant response rating [4]	further results
COC1CCCN(C(=O)c2cc(N(COC(C)=O)S(=O)(=O)C(F)(F)F)c(C)cc2C)C1 (stereo not shown) [Compound 96]	10	90	30	40	10	0	70	80	80	30	80	0	20	20	30	40					Plant response rating, Corn ([1]; 31 g ai/ha): 10; Plant response rating, Pigweed [2, 18]: 20; Plant response rating, Pigweed ([3]; 31 g ai/ha): 30; Plant response rating, Wheat ([4]; 31 g ai/ha): 0; Plant response rating, Foxtail, Giant ([5]; 31 g ai/ha): 0; Plant response rating, Kochia [6, 18]: 0; Plant response rating, Barnyardgrass [7, 18]: 10; Plant response rating, Foxtail, Giant [8, 18]: 40; Plant response rating, Ryegrass, Italian [9, 18]: 0; Plant response rating, Barnyardgrass ([10]; 31 g ai/ha): 0; Plant response rating, Galium ([11]; 31 g ai/ha): 80; Plant response rating, Blackgrass ([12]; 31 g ai/ha): 0; Plant response rating, Kochia ([13]; 31 g ai/ha): 10; Plant response rating, Ryegrass, Italian ([14]; 31 g ai/ha): 0; Plant response rating, Ragweed [15, 18]: 0; Plant response rating, Ragweed ([16]; 31 g ai/ha): 30
COC1CCCN(C(=O)c2cc(NS(=O)(=O)C(F)(F)F)c(C)c(F)c2C)C1 (stereo not shown) [Compound 98]	10	100	80	40	20	40	90	100	50	50	90	0	20	30	80	60					Plant response rating, Corn ([1]; 31 g ai/ha): 0; Plant response rating, Pigweed [2, 18]: 70; Plant response rating, Pigweed ([3]; 31 g ai/ha): 30; Plant response rating, Wheat ([4]; 31 g ai/ha): 0; Plant response rating, Foxtail, Giant ([5]; 31 g ai/ha): 0; Plant response rating, Kochia [6, 18]: 40; Plant response rating, Barnyardgrass [7, 18]: 0; Plant response rating, Foxtail, Giant [8, 18]: 80; Plant response rating, Ryegrass, Italian [9, 18]: 30; Plant response rating, Barnyardgrass ([10]; 31 g ai/ha): 0; Plant response rating, Galium ([11]; 31 g ai/ha): 60; Plant response rating, Blackgrass ([12]; 31 g ai/ha): 20; Plant response rating, Kochia ([13]; 31 g ai/ha): 10; Plant response rating, Ryegrass, Italian ([14]; 31 g ai/ha): 30; Plant response rating, Ragweed [15, 18]: 30; Plant response rating, Ragweed ([16]; 31 g ai/ha): 50
Cc1cc(C)c(N(S(=O)(=O)C(F)(F)F)S(=O)(=O)C(F)(F)F)cc1C1=NOC2CCCC12 (stereo not shown) [Compound 99]	0	100	70	0	0	70	90	70	50	70	90	0	40	0	60	40	0	100	100	50	Foxtail, Giant plant response rating [5]: 10; Plant response rating, Kochia ([6]; 500 g ai/ha): 100; Plant response rating, Barnyardgrass ([7]; 500 g ai/ha): 100; Plant response rating, Foxtail, Giant ([8]; 500 g ai/ha): 80; Plant response rating, Ryegrass, Italian ([9]; 500 g ai/ha): 90; Barnyardgrass plant response rating [10]: 90; Galium plant response rating [11]: 90; Blackgrass plant response rating [12]: 20; Kochia plant response rating [13]: 90; Ryegrass, Italian plant response rating [14]: 60; Plant response rating, Ragweed ([15]; 500 g ai/ha): 90; Ragweed plant response rating [16]: 80
COC1(OC)CCN(C(=O)c2cc(NS(=O)(=O)C(F)(F)F)c(C)cc2C)CC1 [Compound 101]	20	90	70	0	0	60	100	90	80	80	80	20	10	60	60	50	30	90	90	60	Foxtail, Giant plant response rating [5]: 80; Plant response rating, Kochia ([6]; 500 g ai/ha): 90; Plant response rating, Barnyardgrass ([7]; 500 g ai/ha): 100; Plant response rating, Foxtail, Giant ([8]; 500 g ai/ha): 100; Plant response rating, Ryegrass, Italian ([9]; 500 g ai/ha): 100; Barnyardgrass plant response rating [10]: 90; Galium plant response rating [11]: 90; Blackgrass plant response rating [12]: 20; Kochia plant response rating [13]: 30; Ryegrass, Italian plant response rating [14]: 70; Plant response rating, Ragweed ([15]; 500 g ai/ha): 80; Ragweed plant response rating [16]: 70
COCC1(COC)CC(c2cc(NS(=O)(=O)C(F)(F)F)c(C)cc2C)=NO1 [Compound 104]	30	70	40	20	20	0	90	90	50	80	90	0	30	10	30	70	80	90	80	60	Foxtail, Giant plant response rating [5]: 70; Plant response rating, Kochia ([6]; 500 g ai/ha): 50; Plant response rating, Barnyardgrass ([7]; 500 g ai/ha): 100; Plant response rating, Foxtail, Giant ([8]; 500 g ai/ha): 100; Plant response rating, Ryegrass, Italian ([9]; 500 g ai/ha): 100; Barnyardgrass plant response rating [10]: 90; Galium plant response rating [11]: 90; Blackgrass plant response rating [12]: 20; Kochia plant response rating [13]: 40; Ryegrass, Italian plant response rating [14]: 40; Plant response rating, Ragweed ([15]; 500 g ai/ha): 60; Ragweed plant response rating [16]: 90
